Laboratory results reported in patent publication US6541195B2, “Correction of genetic defects using chemical chaperones” (The Regents of the University of California, priority 1996, dated 2003).
Like-named read-outs stand apart in the source and are kept apart here.

Assays:
[1] = biological target: conversion of PrP^C to PrP^Sc (Mus musculus, UniProt P04925); format: cell-based; conditions: for reduction of the amount of detergent insoluble PrP: 100 mM
ΔF508 CFTR [2] = biological target: T1, ΔF508 CFTR (Homo sapiens, UniProt P13569, DEL508-508); assay: Forskolin stimulated chloride transport, SPQ fluorescence assay; format: cell-based; conditions: for forskolin dependent chloride efflux: 37° C.
T1 construct: expressed in transfected cells
T1 sequence (P13569 with tags, fused parts or gaps DEL508-508): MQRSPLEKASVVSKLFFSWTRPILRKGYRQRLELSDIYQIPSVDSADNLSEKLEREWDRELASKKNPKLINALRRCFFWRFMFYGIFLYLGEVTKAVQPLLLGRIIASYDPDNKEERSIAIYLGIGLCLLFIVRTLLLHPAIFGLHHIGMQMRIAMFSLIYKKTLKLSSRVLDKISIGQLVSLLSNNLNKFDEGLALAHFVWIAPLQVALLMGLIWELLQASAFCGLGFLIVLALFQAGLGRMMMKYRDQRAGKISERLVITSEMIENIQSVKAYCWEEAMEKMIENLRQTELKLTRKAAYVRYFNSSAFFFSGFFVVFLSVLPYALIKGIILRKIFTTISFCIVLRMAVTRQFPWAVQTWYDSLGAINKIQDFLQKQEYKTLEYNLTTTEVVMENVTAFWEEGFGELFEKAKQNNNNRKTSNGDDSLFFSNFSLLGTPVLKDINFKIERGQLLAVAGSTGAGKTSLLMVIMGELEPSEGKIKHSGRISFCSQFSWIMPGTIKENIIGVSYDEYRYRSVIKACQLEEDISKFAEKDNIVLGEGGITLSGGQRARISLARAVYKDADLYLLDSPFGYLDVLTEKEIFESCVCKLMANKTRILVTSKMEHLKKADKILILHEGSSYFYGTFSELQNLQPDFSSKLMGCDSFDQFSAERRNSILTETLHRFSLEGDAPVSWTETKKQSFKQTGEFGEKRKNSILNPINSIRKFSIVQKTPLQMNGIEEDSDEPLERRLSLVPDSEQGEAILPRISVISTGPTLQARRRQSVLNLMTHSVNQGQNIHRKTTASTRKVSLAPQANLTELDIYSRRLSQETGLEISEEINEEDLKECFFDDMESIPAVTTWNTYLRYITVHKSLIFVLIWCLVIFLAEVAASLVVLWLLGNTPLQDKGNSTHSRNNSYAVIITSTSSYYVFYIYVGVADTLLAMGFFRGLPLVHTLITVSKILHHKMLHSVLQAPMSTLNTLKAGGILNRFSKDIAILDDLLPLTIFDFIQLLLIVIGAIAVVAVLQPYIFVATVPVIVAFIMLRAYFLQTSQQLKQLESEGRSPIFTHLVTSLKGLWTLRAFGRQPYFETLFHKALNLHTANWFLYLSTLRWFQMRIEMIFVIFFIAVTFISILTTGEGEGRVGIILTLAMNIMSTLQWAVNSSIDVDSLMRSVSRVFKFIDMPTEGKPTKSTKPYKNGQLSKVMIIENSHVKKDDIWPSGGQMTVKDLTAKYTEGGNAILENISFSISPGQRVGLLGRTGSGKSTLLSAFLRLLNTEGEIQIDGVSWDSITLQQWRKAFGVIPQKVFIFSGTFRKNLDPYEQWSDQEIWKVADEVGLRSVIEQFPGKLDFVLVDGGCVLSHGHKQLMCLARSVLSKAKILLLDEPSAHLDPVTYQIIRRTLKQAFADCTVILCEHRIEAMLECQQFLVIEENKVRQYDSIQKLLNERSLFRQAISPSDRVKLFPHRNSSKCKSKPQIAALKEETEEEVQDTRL
Method: (§1) Forskolin-sensitive chloride transport was measured by the fluorescence assays method (FIG. 3). Briefly, ΔF508-CFTR expressing cells were grown on glass coverslips at 37° C. in the absence or presence of 1.25 M glycerol for 3 days. These cells, along with cells expressing wild type CFTR, then were examined for forskolin stimulated chloride transport using SPQ fluorescence assays, as described in: Verkman, A. S., Am. J. Physiol., 259:C375 (1990); Verkman, A. S. et al., in Methods in Neurosciences, Kraicer, J. et al., Eds. (Academic Press, 1995) vol. 27, 328. Plasma membrane chloride efflux was measured from the time course of increase in SPQ fluorescence in response to replacement of intracellular chloride by nitrate. Cells in the presence or absence of a protein stabilizing agent were incubated with 2 mM SPQ for 12-18 hrs. prior to measurements. The rate of chloride efflux was measured before and after stimulation of cAMP with forskolin. The reaction was quenched by the addition of 150 mM KSCN.
(§2) The positive effect of glycerol treatment on chloride conductance was concentration and time dependent (FIG. 3B). ΔF508 CFTR-expressing cells growing on glass coverslips were incubated with various concentrations of glycerol for 3 days and then examined for forskolin stimulated chloride transport. Alternatively, cells were incubated with 1.25 M glycerol for varying times (1, 2 or 3 days) and then analyzed for chloride transport following stimulation by forskolin.
Powdered DMEM medium (Gibco) was reconstituted in 100% distilled water or in 100% […]. Cells transfected with ΔF508 CFTR or mock transfected cells were incubated in either the distilled water or the dH2O containing culture medium for two days at 37° C., and then analyzed for forskolin dependent chloride efflux.
Both mock transfected cells and the cells transfected with ΔF508 CFTR were incubated in regular DMEM culture medium containing 100 mM TMAO for two days at 37° C. and then analyzed for forskolin dependent chloride efflux.
In contrast, cells treated with 4 different osmolytes now show partial chloride transport (note however that it never reaches the wild type levels, rather only about 10-30% of wild type).

[3] = test system: temperature sensitive form of pp60^src; format: cell-based, Rous sarcoma virus; conditions: 39.5° C.
[4] = biological target: temperature sensitive (ts) mutant p53 protein (Mus musculus, UniProt P02340, A135V); assay: Intracellular localization of temperature sensitive p53 in A1-5 cells by indirect immunofluorescence; conditions: 39.5° C., after 2 D treatment
Sequence of temperature sensitive (ts) mutant p53 protein (P02340 whole entry A135V): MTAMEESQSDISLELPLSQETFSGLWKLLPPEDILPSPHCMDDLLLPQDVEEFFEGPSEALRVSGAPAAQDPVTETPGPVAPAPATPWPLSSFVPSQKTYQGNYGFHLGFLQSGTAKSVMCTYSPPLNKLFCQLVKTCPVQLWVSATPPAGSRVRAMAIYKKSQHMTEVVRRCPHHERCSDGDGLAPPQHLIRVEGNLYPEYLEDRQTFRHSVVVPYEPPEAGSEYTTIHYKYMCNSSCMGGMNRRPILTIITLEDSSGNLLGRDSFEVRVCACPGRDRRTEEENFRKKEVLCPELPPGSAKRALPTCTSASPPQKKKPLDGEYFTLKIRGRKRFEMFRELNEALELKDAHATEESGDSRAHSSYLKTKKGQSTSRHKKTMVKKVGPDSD

ΔF508 CFTR [5] = biological target: T1, ΔF508 CFTR; assay: Western blotting of ΔF508 CFTR processing and maturation in transfected NIH 3T3 cells; format: cell-based
Method: The effect of glycerol was measured by detecting either (1) the maturation of immature core-glycosylated endoplasmic reticulum forms of the ΔF508 CFTR to mature terminally glycosylated forms, or (2) the presence of forskolin-dependent chloride transport.
Western blotting using a commercially available anti-CFTR monoclonal antibody (panel 1A) or our polyclonal anti-CFTR antibody (Panel 1B) was performed using cell lysates from NIH 3T3 cells transfected with either the wild type or ΔF508 forms of CFTR. Andersen, M. P. et al., Science, 253:202 (1991). Both the polyclonal and monoclonal antibodies recognized the 140 kDa (core glycosylated, or B form) and 160 kDa (fully glycosylated, C form) forms of CFTR in lysates from wild type CFTR expressing cells. In contrast, only the 140 kDa core glycosylated CFTR was detected by the two antibodies in the lysates from cells transfected with the ΔF508 CFTR mutant.
In panel 1C, cells expressing the ΔF508 mutant were examined by Western blotting using the rabbit polyclonal antibody following their treatment at 37° C. with 1 M glycerol for 3 days. As a positive control, the ΔF508 CFTR expressing cells were incubated at 26° C. for 3 days.
The results of experiments to determine the optimal concentration of glycerol and the duration of glycerol treatment needed to elicit the highest levels of mutant ΔF508 CFTR maturation are summarized in FIG. 2. In panel 2A, cells expressing ΔF508 CFTR were incubated at 37° C. for 3 days in culture medium containing various concentrations of glycerol. The cells were harvested and then analyzed by Western blotting using the rabbit polyclonal anti-CFTR antibody. In panel 2B, cells expressing ΔF508 CFTR were incubated with 1.25 M glycerol at 37° C. for 1, 2 or 3 days and then analyzed by Western blotting as described in A. Glycerol concentrations of 1-1.25 M gave the maximal amount of mutant protein which was properly processed.
In Panel A of FIG. 22, 3T3 cells expressing the ΔF508 CFTR protein (via stable transfection) were treated with either 100 or 200 mM of the specified cellular osmolytes for 2 days. Cells were then lysed and examined by Western blot analysis. Wt represents cells expressing the wild type CFTR protein. B, G, T, S and M indicated cells treated with betaine, glucose, taurine, sorbitol and myoinositol, respectively.
In Panel A, cells expressing ΔF508 CFTR were incubated in the presence or absence of varying concentrations (25, 50, 100 mM) of osmolyte. After 2 days of growth, the cells were harvested and analyzed for their content of immature (band B) and mature (band C) forms of the CFTR protein by Western blotting. Cells expressing wild type CFTR (wt) were included as a positive control. In Panel B, cells expressing ΔF508 CFTR were incubated for 1 (1D), 2(2D) or 3 (3D) days in growth medium containing 150 mM of the indicated osmolyte. As a control, the same cells were incubated in normal growth medium. […] After 3 days of continuous treatment with 150 mM osmolyte there is see a “drop-off” of the amount of the C band.

wild type CFTR protein = biological target: T2, wild type CFTR protein (Homo sapiens, UniProt P13569); assay: Glycerol exposure of cells expressing wild type CFTR (Western blotting, chloride conductance); format: cell-based; conditions: data not shown
T2 construct: expressed in transfected cells; host or cells: NIH 3T3 fibroblasts
T2 sequence (P13569 whole entry): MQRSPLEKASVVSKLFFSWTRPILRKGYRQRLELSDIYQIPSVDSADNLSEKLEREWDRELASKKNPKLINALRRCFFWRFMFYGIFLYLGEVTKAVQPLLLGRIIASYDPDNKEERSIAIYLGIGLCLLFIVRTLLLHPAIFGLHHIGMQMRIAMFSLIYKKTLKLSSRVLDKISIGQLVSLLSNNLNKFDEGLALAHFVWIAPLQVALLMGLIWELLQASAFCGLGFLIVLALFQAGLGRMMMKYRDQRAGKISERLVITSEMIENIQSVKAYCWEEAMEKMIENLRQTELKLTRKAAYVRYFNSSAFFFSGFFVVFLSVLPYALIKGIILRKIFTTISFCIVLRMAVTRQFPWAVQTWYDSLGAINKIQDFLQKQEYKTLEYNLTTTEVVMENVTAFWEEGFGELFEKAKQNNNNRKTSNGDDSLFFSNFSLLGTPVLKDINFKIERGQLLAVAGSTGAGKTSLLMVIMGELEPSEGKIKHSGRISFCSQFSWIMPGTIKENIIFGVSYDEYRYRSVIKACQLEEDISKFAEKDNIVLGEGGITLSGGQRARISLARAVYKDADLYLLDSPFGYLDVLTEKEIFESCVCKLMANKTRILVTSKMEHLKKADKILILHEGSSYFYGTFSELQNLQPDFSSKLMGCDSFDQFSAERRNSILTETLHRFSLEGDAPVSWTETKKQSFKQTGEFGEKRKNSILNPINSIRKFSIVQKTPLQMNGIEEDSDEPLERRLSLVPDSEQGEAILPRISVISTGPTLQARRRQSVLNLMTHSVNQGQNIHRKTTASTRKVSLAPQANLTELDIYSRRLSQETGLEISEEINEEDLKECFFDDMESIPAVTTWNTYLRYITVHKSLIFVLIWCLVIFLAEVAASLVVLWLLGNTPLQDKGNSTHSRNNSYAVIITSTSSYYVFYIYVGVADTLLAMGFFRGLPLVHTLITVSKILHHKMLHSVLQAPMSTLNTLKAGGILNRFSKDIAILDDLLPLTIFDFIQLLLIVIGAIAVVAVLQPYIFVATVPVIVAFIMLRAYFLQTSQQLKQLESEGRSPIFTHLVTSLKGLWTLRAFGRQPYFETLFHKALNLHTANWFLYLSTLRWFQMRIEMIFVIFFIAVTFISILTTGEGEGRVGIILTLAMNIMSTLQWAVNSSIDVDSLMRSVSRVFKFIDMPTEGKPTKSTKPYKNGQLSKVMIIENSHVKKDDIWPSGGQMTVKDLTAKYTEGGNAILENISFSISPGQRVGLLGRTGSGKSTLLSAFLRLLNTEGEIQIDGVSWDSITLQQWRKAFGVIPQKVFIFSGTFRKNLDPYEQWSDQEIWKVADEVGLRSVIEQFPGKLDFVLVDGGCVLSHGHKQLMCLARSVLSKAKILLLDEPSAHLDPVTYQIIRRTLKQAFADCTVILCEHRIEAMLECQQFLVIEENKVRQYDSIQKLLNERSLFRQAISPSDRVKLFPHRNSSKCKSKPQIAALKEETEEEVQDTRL
Method: as §1, with “Cells in the presence or absence of a protein stabilizing agent were incubated with 2 mM SPQ for 12-18 hrs. prior to measurements.” left out, “The reaction was quenched by the addition of 150 mM KSCN.” left out
as §2

Sequence of conversion of PrP^C to PrP^Sc (P04925 23-230 limits assumed): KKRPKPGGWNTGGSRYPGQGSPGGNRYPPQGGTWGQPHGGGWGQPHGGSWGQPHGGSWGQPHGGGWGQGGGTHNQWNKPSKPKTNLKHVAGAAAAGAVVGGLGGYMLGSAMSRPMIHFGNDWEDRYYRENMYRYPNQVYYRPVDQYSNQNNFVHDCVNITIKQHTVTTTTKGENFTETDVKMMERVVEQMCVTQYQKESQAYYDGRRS

With `C[S+](C)[O-]` [DMSO, dimethylsulfoxide] the “reduction of the amount of detergent insoluble PrP” value ([1]; ScN2a cells) was “over 50%” and the “concentration adversely affecting the morphology and growth rates of the cells” value (ScN2a cells; mouse) was ≥ 200 mM.

In the case of `C[N+](C)(C)[O-]` [TMAO, trimethylamine N-oxide], the “forskolin dependent chloride efflux” value (ΔF508 CFTR [2]; 100 mM TMAO, 2 days) is reported as “Forskolin dependent chloride transport was observed”, the “reduction of the amount of detergent insoluble PrP” value ([1]; ScN2a cells) is reported as “over 50%” and the “restoration of transformed phenotype / wild type pp60^src activity” value [3] is reported as “much less effective”. The “concentration adversely affecting the morphology and growth rates of the cells” value (ScN2a cells) was ≥ 200 mM and the “p53 distribution 2 days following removal of the agent” value [4] was “all of p53 now was found within the cytoplasm”.

`[2H]O[2H]` [deuterated water] was tested, and the “CFTR processing in ΔF508 CFTR-expressing cells” value (ΔF508 CFTR [5]; deuterated water) was “competent to induce CFTR processing”, the “forskolin dependent chloride efflux” value (ΔF508 CFTR [2]; medium in 100% dH2O, two days) was “exhibited forskolin-dependent chloride transport” and the “restoration of transformed phenotype / wild type pp60^src activity” value [3] was “much less effective”. For the same molecule, the “p53 distribution 2 days following removal of the agent” value [4] was “all of p53 now was found within the cytoplasm”.

`OCC(O)CO` [glycerol] was tested, and the “mature ΔF508 CFTR protein by Western blotting” value (ΔF508 CFTR [5]; 1 M glycerol, 37° C., 3 days) was “significant amounts of the mature ΔF508 CFTR protein”, the “duration of treatment giving maximal amounts of fully glycosylated ΔF508 CFTR protein” value (ΔF508 CFTR [5]; 1.25 M glycerol, 37° C.) was 3 days and the “glycerol concentration giving the maximal amount of properly processed mutant protein” value (ΔF508 CFTR [5]; 37° C., 3 days) was 1 to 1.25 M. The “effect of higher doses on fully glycosylated ΔF508 CFTR” value (ΔF508 CFTR [5]; doses higher than 1-1.25 M, 3 days) was “inhibitory”, the “forskolin stimulated chloride transport” value (ΔF508 CFTR [2]; 1.25 M glycerol, one day) was “forskolin stimulated chloride transport was observed” and the “concentration giving maximal rates of chloride efflux” value (ΔF508 CFTR [2]; 3 days) was 1.25 M. The “lowest concentration with increased chloride transport” value (ΔF508 CFTR [2]; 3 days) was 0.5 M, the “effect on amount of mature wild type CFTR protein or forskolin dependent chloride conductance” value (wild type CFTR protein) was “little or no effect” and the “exogenously added MHM2 PrP in detergent fractions versus untreated ScN2a cells” value ([1]; 1 M glycerol 24 hrs, 40 hrs with MHM2 brain extract, 3F4 antibody) was “reduce the levels of the MHM2 protein in both the detergent soluble and insoluble fractions”. For the same molecule, the “glycerol concentrations also giving significant reduction in conversion of PrP^C to PrP^Sc” value ([1]; 3 days) was 0.25-0.5 M, the “most effective glycerol concentration for reducing detergent insoluble PrP” value ([1]; 3 days, 0-1,000 mM tested) was 1 M and the “overall levels of insoluble PrP versus non-glycerol treated cells” value ([1]; ScN2a cells, glycerol 24 hrs) was “marked reduction”. For the same molecule, the “PrP^C synthesis and movement of the newly synthesized protein to the plasma membrane (PIPLC release)” value ([1]; glycerol 24 hrs, PIPLC 5 U/ml 4 hrs) was “does not significantly affect”, the “overall extent of PrP^C to PrP^Sc conversion relative to untreated cells (pulse-chase)” value ([1]; glycerol 3 days, then 5 days without glycerol) was “marked reduction” and the “rate or overall extent of PrP^C synthesis (metabolic labeling)” value ([1]; presence versus absence of glycerol) was “no significant differences”. For the same molecule, the “p53 distribution one day following removal of the agent” value [4] was “no longer displayed a nuclear p53 distribution”.
